Several values for one entry are separate records, joined by “and”; a condition that tells them apart may be missing. Equal values may be shown once. Toxic doses and inconclusive results are not listed. Rule as the data show it: active = T/C of 150% or more; inactive = T/C below 125%.
Test system: L1210 leukemia ip in BDF1 mice, survival T/C
Assay: NCI In Vivo Anticancer Drug Screen. Data for tumor model L1210 Leukemia (intraperitoneal) in B6D2F1 (BDF1) mice
Conditions: endpoint: mean survival time, higher = longer survival
In short: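 Value reflects the ratio of survival in compound-treated mice to survival in vehicle-treated controls, with both groups carrying the same transplanted tumor.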

[1] = dose: 100.0 mg/kg/injection, schedule: Q01DX009 (ip), vehicle: Klucel (hydroxypropylcellulose) (HPC)
[2] = dose: 100.0 mg/kg/injection, schedule: Q04DX003 (ip), vehicle: Klucel (hydroxypropylcellulose) (HPC)
[3] = dose: 200.0 mg/kg/injection, schedule: Q01DX009 (ip), vehicle: Klucel (hydroxypropylcellulose) (HPC)
[4] = dose: 200.0 mg/kg/injection, schedule: Q04DX003 (ip), vehicle: Klucel (hydroxypropylcellulose) (HPC)
[5] = dose: 400.0 mg/kg/injection, schedule: Q01DX009 (ip), vehicle: Klucel (hydroxypropylcellulose) (HPC)
[6] = dose: 400.0 mg/kg/injection, schedule: Q04DX003 (ip), vehicle: Klucel (hydroxypropylcellulose) (HPC)
[7] = dose: 50.0 mg/kg/injection, schedule: Q01DX001 (ip), vehicle: saline
[8] = dose: 100.0 mg/kg/injection, schedule: Q01DX001 (ip), vehicle: saline
[9] = dose: 200.0 mg/kg/injection, schedule: Q01DX001 (ip), vehicle: saline
[10] = dose: 200.0 mg/kg/injection, schedule: Q04DX002 (ip), vehicle: saline with Tween-80
[11] = dose: 400.0 mg/kg/injection, schedule: Q04DX002 (ip), vehicle: saline with Tween-80
[12] = dose: 100.0 mg/kg/injection, schedule: Q01DX009 (ip), vehicle: saline with Tween-80
[13] = dose: 200.0 mg/kg/injection, schedule: Q01DX009 (ip), vehicle: saline with Tween-80
[14] = dose: 400.0 mg/kg/injection, schedule: Q01DX009 (ip), vehicle: saline with Tween-80
[15] = dose: 400.0 mg/kg/injection, schedule: Q01DX001 (ip), vehicle: saline
[16] = dose: 100.0 mg/kg/injection, schedule: Q04DX003 (ip), vehicle: saline with Tween-80
[17] = dose: 200.0 mg/kg/injection, schedule: Q04DX003 (ip), vehicle: saline with Tween-80
[18] = dose: 400.0 mg/kg/injection, schedule: Q04DX003 (ip), vehicle: saline with Tween-80
[19] = dose: 100.0 mg/kg/injection, schedule: Q01DX001 (ip), vehicle: Klucel (hydroxypropylcellulose) (HPC)
[20] = dose: 200.0 mg/kg/injection, schedule: Q01DX001 (ip), vehicle: Klucel (hydroxypropylcellulose) (HPC)
[21] = dose: 100.0 mg/kg/injection, schedule: Q01DX001 (ip), vehicle: carboxymethylcellulose (CMC)
[22] = dose: 200.0 mg/kg/injection, schedule: Q01DX001 (ip), vehicle: carboxymethylcellulose (CMC)

Measured: T/C

CCOC(=O)c1cnc(SC)nc1OCC
inactive: dose: 12.0 mg/kg/injection, schedule: Q01DX001 (ip), vehicle: Klucel (hydroxypropylcellulose) (HPC) 93 % of control | dose: 25.0 mg/kg/injection, schedule: Q01DX001 (ip), vehicle: Klucel (hydroxypropylcellulose) (HPC) 104 % of control

CCOC(=O)c1cnc(SC)nc1Nc1cccc(Br)c1
inactive: [1] 91 % of control | [2] 97 % of control | [3] 96 % of control | [4] 92 % of control | [5] 93 % of control | [6] 90 % of control

CNC1(c2ccc(F)cc2)CCCCC1
inactive: [7] 98 % of control | [8] 98 % of control

CCC(=O)Nc1ccc(Cl)cc1
inactive: [1] 87 % of control | [2] 95 % of control | [3] 93 % of control | [4] 95 % of control | [5] 104 % of control | [6] 95 % of control

CCOP(=O)(Oc1ccc([N+](=O)[O-])cc1)c1cccc(Cl)c1 (centres undefined)
inactive: dose: 5.0 mg/kg/injection, schedule: Q01DX001 (ip), vehicle: saline 102 % of control | dose: 10.0 mg/kg/injection, schedule: Q01DX001 (ip), vehicle: saline 111 % of control

CCC(C)c1ccc(OCCO)cc1 (centres undefined)
inactive: [8] 97 % of control | [9] 90 % of control

CCOc1ccc(N=Cc2ccc(OC(=O)c3ccccc3)c(OC)c2)cc1
inactive: dose: 100.0 mg/kg/injection, schedule: Q04DX002 (ip), vehicle: saline with Tween-80 102 % of control | [10] 95 % of control | [11] 113 % of control

C=C(CCC(C(=O)O)C1CCC2(C)C3=C(CCC12C)C1(C)CCC(O)C(C)(C)C1CC3)C(C)C (centres undefined)
inactive: [12] 91 % of control | [13] 87 % of control | [14] 94 % of control

O=C(c1c2c(nc3ccccc13)CCCC2)N1CCOCC1
inactive: [8] 100 % of control | [9] 97 % of control | [15] 97 % of control

CCCCNC(C)(C)C(SSC(c1cccs1)C(C)(C)NCCCC)c1cccs1 (centres undefined)
inactive: dose: 25.0 mg/kg/injection, schedule: Q01DX009 (ip), vehicle: saline sonified 100 % of control | dose: 50.0 mg/kg/injection, schedule: Q01DX009 (ip), vehicle: saline sonified 100 % of control | dose: 100.0 mg/kg/injection, schedule: Q01DX009 (ip), vehicle: saline sonified 96 % of control | dose: 100.0 mg/kg/injection, schedule: Q04DX003 (ip), vehicle: saline sonified 90 % of control

OCCOC(O)C(Cl)(Cl)Cl (centres undefined)
inactive: dose: 100.0 mg/kg/injection, schedule: Q04DX002 (ip), vehicle: saline 100 % of control | dose: 200.0 mg/kg/injection, schedule: Q04DX002 (ip), vehicle: saline 92 % of control | dose: 400.0 mg/kg/injection, schedule: Q04DX002 (ip), vehicle: saline 95 % of control

N#CCN(CC#N)S(=O)(=O)c1ccccc1
inactive: [16] 96 % of control | [17] 94 % of control | [18] 101 % of control

CNc1ncc2nc(C)c(=O)n(C)c2n1
inactive: dose: 50.0 mg/kg/injection, schedule: Q01DX009 (ip), vehicle: Klucel (hydroxypropylcellulose) (HPC) 98 % of control | [1] 95 % of control

CC(=O)c1c(OC(C)C(=O)O)ccc2ccccc12 (centres undefined)
inactive: [8] 98 % of control | [9] 101 % of control | [15] 107 % of control

C1=CC2CCC1NO2 (centres undefined)
inactive: [8] 105 % of control | [9] 95 % of control | [15] 101 % of control

Nc1nc2ncc(CNc3ccc(C(=O)NC(CCC(=O)O)C(=O)O)cc3)nc2c(=O)n1N (centres undefined)
inactive: [19] 98 % of control | [20] 101 % of control | dose: 400.0 mg/kg/injection, schedule: Q01DX001 (ip), vehicle: Klucel (hydroxypropylcellulose) (HPC) 98 % of control

Cc1ccc(N=Nc2c(C)nn(C(N)=S)c2-c2ccccc2)cc1
inactive: dose: 75.0 mg/kg/injection, schedule: Q01DX001 (ip), vehicle: saline 94 % of control | dose: 150.0 mg/kg/injection, schedule: Q01DX001 (ip), vehicle: saline 90 % of control

CCCCC(=O)N/N=C/c1ccc(I)cc1
inactive: [21] 91 % of control | [22] 87 % of control | dose: 400.0 mg/kg/injection, schedule: Q01DX001 (ip), vehicle: carboxymethylcellulose (CMC) 91 % of control

CN(CCc1cnc2nc(N)nc(N)c2n1)c1ccc(C(=O)NC(CCC(=O)O)C(=O)O)cc1 (centres undefined)
inactive: dose: 12.5 mg/kg/injection, schedule: Q01DX009 (ip), vehicle: Klucel (hydroxypropylcellulose) (HPC) 113 % of control | dose: 25.0 mg/kg/injection, schedule: Q01DX009 (ip), vehicle: Klucel (hydroxypropylcellulose) (HPC) 118 % of control | dose: 100.0 mg/kg/injection, schedule: Q04DX003 (ip), vehicle: saline 110 % of control | dose: 200.0 mg/kg/injection, schedule: Q04DX003 (ip), vehicle: saline 105 % of control

CCC(Br)C(Br)CC(Br)C(Br)CC(Br)C(Br)CCCCCCCC(=O)O (centres undefined)
inactive: [1] 96 % of control | [2] 98 % of control | [3] 88 % of control | [4] 89 % of control | [5] 88 % of control | [6] 92 % of control

CN(C)c1ccc(C(N)C(=O)O)cc1 (centres undefined)
inactive: [7] 101 % of control | [8] 98 % of control | [9] 95 % of control

CCOC(=O)C(=O)C1C(=O)C(=O)C(c2ccccc2)C1=O (centres undefined)
inactive: dose: 75.0 mg/kg/injection, schedule: Q01DX001 (ip), vehicle: carboxymethylcellulose (CMC) 104 % of control | dose: 150.0 mg/kg/injection, schedule: Q01DX001 (ip), vehicle: carboxymethylcellulose (CMC) 100 % of control | dose: 300.0 mg/kg/injection, schedule: Q01DX001 (ip), vehicle: carboxymethylcellulose (CMC) 105 % of control

Cc1ccccc1NC(=O)c1ccc([N+](=O)[O-])cc1
inactive: [12] 106 % of control | [16] 98 % of control | [13] 101 % of control | [17] 94 % of control | [14] 101 % of control | [18] 98 % of control

Cc1ccc(S(=O)(=O)OCCN(CCOS(=O)(=O)c2ccc(C)cc2)c2ccc(C=O)cc2)cc1
inactive: dose: 50.0 mg/kg/injection, schedule: Q01DX001 (ip), vehicle: carboxymethylcellulose (CMC) 114 % of control | [21] 102 % of control and 120 % of control | dose: 175.0 mg/kg/injection, schedule: Q01DX001 (ip), vehicle: carboxymethylcellulose (CMC) 121 % of control | [22] 98 % of control and 122 % of control | dose: 265.0 mg/kg/injection, schedule: Q01DX001 (ip), vehicle: carboxymethylcellulose (CMC) 116 % of control | dose: 600.0 mg/kg/injection, schedule: Q01DX001 (ip), vehicle: carboxymethylcellulose (CMC) 115 % of control

CCOc1ccc(OCC)c(NC(=O)Nc2ccccc2Cl)c1
inactive: [10] 90 % of control | [11] 87 % of control

CC(=O)Nc1ccc(S(=O)(=O)NC(C)=O)cc1
inactive: dose: 100.0 mg/kg/injection, schedule: Q01DX001 (ip), vehicle: other 94 % of control | [12] 108 % of control | dose: 200.0 mg/kg/injection, schedule: Q01DX001 (ip), vehicle: other 96 % of control | dose: 400.0 mg/kg/injection, schedule: Q01DX001 (ip), vehicle: other 107 % of control | [14] 97 % of control

Nc1nc2c(ncn2-c2ccc(OCCCOc3ccc(S(=O)(=O)F)cc3)cc2)c(=O)[nH]1
inactive: [19] 94 % of control | [20] 91 % of control

COC(=O)c1c[nH]c2cc(OC(C)C)c(OC(C)C)cc2c1=O
inactive: dose: 100.0 mg/kg/injection, schedule: Q01DX001 (ip), vehicle: saline with Tween-80 96 % of control | dose: 200.0 mg/kg/injection, schedule: Q01DX001 (ip), vehicle: saline with Tween-80 91 % of control | dose: 400.0 mg/kg/injection, schedule: Q01DX001 (ip), vehicle: saline with Tween-80 100 % of control

c1cc[c]([Sn]([c]2ccccc2)([c]2ccccc2)[n]2cccc2)cc1
inactive: dose: 3.13 mg/kg/injection, schedule: Q01DX009 (ip), vehicle: saline with Tween-80 98 % of control | dose: 6.25 mg/kg/injection, schedule: Q01DX009 (ip), vehicle: saline with Tween-80 102 % of control | dose: 12.5 mg/kg/injection, schedule: Q01DX009 (ip), vehicle: saline with Tween-80 100 % of control | [12] 94 % of control

— PubChem BioAssay AID248 (DTP/NCI, 2004)
